In patent US12318393B2, “Modulators of orphan nuclear receptors for NASH and other metabolic disorders” (Emory University, priority 2018, dated 2025):

Test system: high-fat-fed C57BL/6 mice
Assay: High-fat-diet C57BL/6 mice, Compound 1 7.5 mg/kg with antagomiR-control or antagomiR-122
Type: in vivo
Procedure: C57BL/6 mice were fed a 50% high fat diet (HFD) for four weeks. The control cohort received three hydrodynamic tail vein injections of a 5 μg antagomiR-control and six i.p injections of saline over three weeks. A second cohort was hydrodynamic tail vein injected with 5 μg antagomiR-122 (the reverse complement that inhibits activity of miR-122) three times and i.p injections of saline six times over three weeks. A third cohort was injected i.p. with Compound 1 (7.5 mg/kg) twice a week plus antagomiR-control once a week over the course of 3 weeks. The final cohort was injected i.p. with Compound 1 (7.5 mg/kg) twice a week plus antagomiR-122 injections once a week over the course of 3 weeks.
High Fat diet fed mice. C57BL/6 male mice were fed for 8 weeks a 50% high fat diet (Envigo, DIETTD150235). All mice were kept in a pathogen-free facility, under a 12 h light/dark cycle. Research on mice was approved by the Hebrew University Institutional Animal Care and Ethics Committee.
Compound 1 and AntagomiR injections to mice. C57BL/6 male mice, 7-8 weeks old, or Sgp130FC, 9-month-old male mice, were injected i.p. with 7.5 mg/kg Compound 1 dissolved in saline and 3% DMSO. Saline was injected as control. Mice were hydrodynamic tail vain injected with antagomiR-122 or antagomiR-control (negative control) (5 μg/mouse in 1.5 ml saline). Mice were sacrificed according to the legend of the figure describing the experimental results and the livers, white adipose and skeletal muscle tissues were frozen in liquid nitrogen or in OCT embedded frozen blocks, for further RNA and histologic analysis. AntagomiRs were obtained from Sigma Aldrich, see Table 3.
Triglycerides and β-hydroxybutyrate quantification. To determine the liver and muscle lipid content, muscle and liver tissues (40-80 mg) were homogenized in 0.5 ml of chloroform: Tris solution (v/v, 1:1), the homogenate was transferred to 1 ml of chloroform: methanol solution (v/v, 2:1) centrifuged at 3000 rpm for 10 min. The organic phase was mixed with 5% Triton X100 in chloroform, dried and re-dissolved in water. After lipid extraction, TG concentration in samples was measured with Triglyceride Quantification Kit (BioVision), according to the manufactures instructions. β-hydroxybutyrate was determined utilizing commercial colorimetric kits (BioVision) directly from plasma samples.
In an effort to determine whether the mechanism of action of miR-122 and Compound 1 are aligned at the same pathway, an experiment was designed in which both molecules, together and each separately, were administered. In this study, mice were fed with a 50% HFD and therapy was initiated 4 weeks after the animals were already on a diet, to establish NASH prior to treatment. Therapies (antagomiRs given once a week, due to a prolonged half time, and RS twice weekly, due to a plasma t/2 of 2.7 hrs) were initiated after 4 weeks and given for 3 weeks. The mice were weighed from week 3 and therapies initiated a week later. […] The liver was further analyzed to assess lipotoxicity. […] A surrogate marker for energy expenditure, β-hydroxybutyrate, was also measured. A reduction in energy expenditure is associated with reduced miR-122, and energy expenditure increased upon treating with Compound 1.
Male C57BL/6J mice, 7 to 8 weeks old, were housed randomly in standard cages and were fed a HFD, or atherogenic diet (consisting 1% Chol and 0.5% cholic acid, see also Table 3). All mice had free access to water during the experimental period. During the feeding period body weight was monitored every 3 days. In the HFD experiment, after 4 or 6 weeks, the resultant obese mice were treated with antagomiR-122 ([…] once a week for 3 weeks), or i.p. injected with Compound 1 (RORα agonist, 7.5 mg/kg twice a week for 3 weeks; or 15 mg/kg 3 times a week for 3 weeks). The obese control (HFD) group was administered only saline with DMSO and antagomiR-control. […]

## antagomiR-122: small synthetic RNA, 2'-O-Me/phosphorothioate modified, cholesterol-linked, reverse complement that inhibits activity of miR-122 (antisense ACAAACACCAUUGUCACAC; 2'-O-methyl, phosphorothioate, cholesterol-linked, pattern not given here) [reference compound]
5 μg antagomiR hydrodynamic tail vein injection three times over three weeks, HFD
  final body weight: 32 g
50% HFD, treatment for 3 weeks
  TG content in the muscle: increased
